Test results taken from PMC5458626 (American heart journal, 2017).
“Also recorded” adds a separate entry of the source. Blank lines part the entries; values can stand above or below the compound they belong to.

What was measured:
[1] = tested on: Phosphodiesterase Type 5 (PDE5); conditions: major circulating metabolite; ref [15]–[17]; cited from earlier work
[2] = Plasma pharmacokinetics of udenafil and DA-8164; conditions: for DA-8164 Cmax: plasma metabolite
[3] = Adverse events; format: in vivo, human
[4] = adult males, oral administration; ref [15]–[17]; cited from earlier work
[5] = Exercise stress test; format: in vivo, human; conditions: for Maximal VO2 at maximum exercise effort, follow-up measurement / VO2 at anaerobic threshold, follow-up measurement: day 5, mean ± SD
[6] = Vascular function by peripheral arterial tonometry; format: in vivo, human; conditions: for Augmentation Index adjusted to HR 75, follow-up measurement / Natural log of Reactive Hyperemic Index, follow-up measurement: day 5; for Natural log of Reactive Hyperemic Index, difference FU – BL: day 5 minus baseline (positive = improvement)
[7] = Echocardiography: myocardial performance index; format: in vivo, human; conditions: for Blood pool MPI, follow-up measurement / Tissue Doppler MPI, follow-up measurement: day 5; for Blood pool MPI, difference FU – BL: day 5 minus baseline (negative = improvement)
[8] = metabolite, oral udenafil 37.5 mg bid for five days, mean (%CV), N=6
[9] = metabolite, oral udenafil 37.5 mg daily for five days, mean (%CV), N=6
[10] = metabolite, oral udenafil 125 mg daily for five days, mean (%CV), N=6
[11] = once-daily dosing, dose increased 3.3 times
[12] = oral udenafil 37.5 mg bid for five days, mean (%CV), N=6
[13] = oral udenafil 37.5 mg daily for five days, mean (%CV), N=6
[14] = oral udenafil 125 mg daily for five days, mean (%CV), N=6
[15] = twice-daily dosing, dose increased 2.3 times
[16] = total udenafil, all cohorts, N=30
[17] = udenafil 37.5 mg daily, 5 days, N=6
[18] = udenafil 37.5 mg twice daily, 5 days, N=6
[19] = udenafil 125 mg daily, 5 days, N=6
[20] = once-daily dosing, dose increased 3.3 times (37.5 to 125 mg)

Compound: CCCOc1ccc(S(N)(=O)=O)cc1-c1nc2c(CCC)nn(C)c2c(=O)[nH]1 [DA-8164]
Potency of DA-8164 relative to udenafil [1]: equipotent
DA-8164 T½ (harmonic mean half-life, 0.693/mean kel) ([2]; metabolite, oral udenafil 37.5 mg bid for five days, N=6): 14.1 h
DA-8164 Cavg (AUC0−τ/τ) [2, 8]: 108 (55) ng/mL
DA-8164 Tmax [2, 8]: 2.1 (78) h
DA-8164 kel [2, 8]: 0.0491 (16) h
DA-8164 AUC0−τ ([2]; metabolite, oral udenafil 37.5 mg bid for five days, τ = 12 hours, mean (%CV), N=6): 1290 (55) ng*h/mL
DA-8164 T½ (harmonic mean half-life, 0.693/mean kel) ([2]; metabolite, oral udenafil 37.5 mg daily for five days, N=6): 14.6 h
DA-8164 Cavg (AUC0−τ/τ) [2, 9]: 36.7 (43) ng/mL
DA-8164 Tmax [2, 9]: 3.1 (51) h
DA-8164 kel [2, 9]: 0.0474 (34) h
DA-8164 T½ (harmonic mean half-life, 0.693/mean kel) ([2]; metabolite, oral udenafil 125 mg daily for five days, N=6): 14.5 h
DA-8164 Cavg (AUC0−τ/τ) [2, 10]: 145 (14) ng/mL
DA-8164 Tmax [2, 10]: 3.8 (35) h
DA-8164 kel [2, 10]: 0.0480 (17) h
Fold increase of mean DA-8164 AUC0−τ with udenafil dose [2, 11]: 4 fold
Fold increase of mean DA-8164 Cmax with udenafil dose [2, 11]: 4.2 fold
DA-8164 Cmax [2, 12]: 159 (52) ng/mL
DA-8164 Cmax [2, 13]: 61.3 (46) ng/mL
DA-8164 Cmax [2, 14]: 256 (13) ng/mL
Fold increase of mean DA-8164 AUC0−τ with udenafil dose [2, 15]: 1.9 fold
Fold increase of mean DA-8164 Cmax with udenafil dose [2, 15]: 1.8 fold

Dose dependence of oral clearance (CL/F) ([2]; across the five dosing cohorts): decreased with increasing dose
Cmax ([2]; human, plasma, po, 37.5 mg, Udenafil Cmax, oral udenafil 37.5 mg bid for five days, mean (%CV), N=6): 152 ng/mL
Fold increase of mean udenafil AUC0−τ with dose [2, 20]: 4 fold
Fold increase of mean udenafil Cmax with dose [2, 20]: 4.6 fold
Udenafil CL/F (oral clearance) [2, 12]: 39.9 (36) L/h
Udenafil CL/F (oral clearance) [2, 13]: 53.3 (40) L/h
Udenafil CL/F (oral clearance) [2, 14]: 43.3 (39) L/h
Compound: CCCOc1ccc(S(=O)(=O)NCCC2CCCN2C)cc1-c1nc2c(CCC)nn(C)c2c(=O)[nH]1 (stereo not shown) [udenafil]
Subjects with facial flushing possibly or probably related to study medication ([3]; 30 subjects, all cohorts): 33%
Subjects with nasal congestion possibly or probably related to study medication ([3]; 30 subjects, all cohorts): 20%
Subjects with nausea possibly or probably related to study medication ([3]; 30 subjects, all cohorts): 10%
Dose dependence of reported AEs ([3]; across the five dosing cohorts): did not increase with increasing dose
Subjects with headache (most common AE) ([3]; of 30 subjects exposed to udenafil, all cohorts): 19 subjects
Subjects with headache possibly or probably related to study drug ([3]; of the 30 subjects, all cohorts): 63%
Drug-related serious adverse events ([3]; study period, all dosing cohorts): No drug-related serious AEs; also recorded: no drug-related serious adverse events were reported
Subjects who experienced drug-related (probably or possibly) adverse events: Headache [3, 16]: 19 (63) n (%)
Subjects who experienced drug-related adverse events: Abdominal discomfort [3, 16]: 2 (7) n (%)
Subjects who experienced drug-related adverse events: Back pain [3, 16]: 1 (3) n (%)
Subjects who experienced drug-related adverse events: Flushing [3, 16]: 10 (33) n (%)
Subjects who experienced drug-related adverse events: Nasal congestion [3, 16]: 6 (20) n (%)
Subjects who experienced drug-related adverse events: Nausea [3, 16]: 3 (10) n (%)
Subjects who experienced drug-related (probably or possibly) adverse events: Headache [3, 17]: 3 (50) n (%)
Subjects who experienced drug-related adverse events: Abdominal discomfort [3, 17]: 0 (0) n (%)
Subjects who experienced drug-related adverse events: Back pain [3, 17]: 0 (0) n (%)
Subjects who experienced drug-related adverse events: Flushing [3, 17]: 1 (17) n (%)
Subjects who experienced drug-related adverse events: Nasal congestion [3, 17]: 1 (17) n (%)
Subjects who experienced drug-related adverse events: Nausea [3, 17]: 1 (17) n (%)
Subjects who experienced drug-related adverse events: Spontaneous penile erection ([3]; udenafil 37.5 mg daily, 5 days, N=6, male subjects only): 0 (0) n (%)
Subjects who experienced drug-related (probably or possibly) adverse events: Headache [3, 18]: 4 (67) n (%)
Subjects who experienced drug-related adverse events: Abdominal discomfort [3, 18]: 0 (0) n (%)
Subjects who experienced drug-related adverse events: Back pain [3, 18]: 0 (0) n (%)
Subjects who experienced drug-related adverse events: Flushing [3, 18]: 2 (33) n (%)
Subjects who experienced drug-related adverse events: Nasal congestion [3, 18]: 2 (33) n (%)
Subjects who experienced drug-related adverse events: Nausea [3, 18]: 1 (17) n (%)
Subjects who experienced drug-related (probably or possibly) adverse events: Headache [3, 19]: 4 (67) n (%)
Subjects who experienced drug-related adverse events: Abdominal discomfort [3, 19]: 1 (17) n (%)
Subjects who experienced drug-related adverse events: Back pain [3, 19]: 0 (0) n (%)
Subjects who experienced drug-related adverse events: Flushing [3, 19]: 1 (17) n (%)
Subjects who experienced drug-related adverse events: Nasal congestion [3, 19]: 1 (17) n (%)
Subjects who experienced drug-related adverse events: Nausea [3, 19]: 0 (0) n (%)
Effect of gender on dose-normalized Cmax and Cavg ([2]; male (N=17) vs female (N=13), oral udenafil 5 days): not different for the male and female patients
Udenafil terminal half-life [4]: ~16 h
Effect on exercise performance (baseline to day 5) ([5]; all dosing cohorts, 5 days): did not improve in any of the dosing cohorts
Maximal VO2 at maximum exercise effort, follow-up measurement ([5]; udenafil 37.5 mg BID, N=6): 28.8 ± 8.1 mL/min/kg
VO2 at anaerobic threshold, follow-up measurement ([5]; udenafil 37.5 mg BID, N=6): 18.1 ± 3.0 mL/min/kg
Maximal VO2 at maximum exercise effort, follow-up measurement ([5]; udenafil 37.5 mg QD, N=5): 24.7 ± 6.7 mL/min/kg
VO2 at anaerobic threshold, follow-up measurement ([5]; udenafil 37.5 mg QD, N=5): 16.3 ± 2.0 mL/min/kg
Maximal VO2 at maximum exercise effort, follow-up measurement ([5]; udenafil 125 mg QD, N=6): 28.6 ± 3.8 mL/min/kg
VO2 at anaerobic threshold, follow-up measurement ([5]; udenafil 125 mg QD, N=6): 20.0 ± 3.2 mL/min/kg
Effect on lnRHI and AI (baseline to day 5) ([6]; all dosing cohorts, 5 days): no discernible differences between paired baseline and follow-up measures of lnRHI or AI in any dosing cohort
Augmentation Index adjusted to HR 75, follow-up measurement ([6]; all udenafil subjects, N=28): −2.18±13.91
Natural log of Reactive Hyperemic Index, follow-up measurement ([6]; all udenafil subjects, N=28): 0.49±0.28
Augmentation Index adjusted to HR 75, follow-up measurement ([6]; udenafil 37.5 mg BID, N=6): 2.89±7.11
Natural log of Reactive Hyperemic Index, follow-up measurement ([6]; udenafil 37.5 mg BID, N=6): 0.53±0.29
Augmentation Index adjusted to HR 75, follow-up measurement ([6]; udenafil 37.5 mg QD, N=6): −0.62±23.82
Natural log of Reactive Hyperemic Index, follow-up measurement ([6]; udenafil 37.5 mg QD, N=6): 0.51±0.26
Augmentation Index adjusted to HR 75, follow-up measurement ([6]; udenafil 125 mg QD, N=6): 1.90±8.65
Natural log of Reactive Hyperemic Index, follow-up measurement ([6]; udenafil 125 mg QD, N=6): 0.52±0.34
Natural log of Reactive Hyperemic Index, difference FU – BL ([6]; all udenafil subjects, N=27): −0.02±0.30
Natural log of Reactive Hyperemic Index, difference FU – BL ([6]; udenafil 37.5 mg BID, N=6): −0.07±0.17
Natural log of Reactive Hyperemic Index, difference FU – BL ([6]; udenafil 37.5 mg QD, N=6): 0.03±0.47
Natural log of Reactive Hyperemic Index, difference FU – BL ([6]; udenafil 125 mg QD, N=6): −0.10±0.38
Blood pool MPI, follow-up measurement ([7]; all udenafil subjects, N=28): 0.52±0.17
Tissue Doppler MPI, follow-up measurement ([7]; all udenafil subjects, N=28): 0.71±0.20
Blood pool MPI, follow-up measurement ([7]; udenafil 37.5 mg BID, N=6): 0.49±0.087
Tissue Doppler MPI, follow-up measurement ([7]; udenafil 37.5 mg BID, N=6): 0.73±0.23
Blood pool MPI, follow-up measurement ([7]; udenafil 37.5 mg QD, N=5): 0.50±0.19
Tissue Doppler MPI, follow-up measurement ([7]; udenafil 37.5 mg QD, N=5): 0.64±0.21
Blood pool MPI, follow-up measurement ([7]; udenafil 125 mg QD, N=5): 0.70±0.20
Tissue Doppler MPI, follow-up measurement ([7]; udenafil 125 mg QD, N=5): 0.82±0.27
Blood pool MPI, difference FU – BL ([7]; all udenafil subjects, N=27): −0.059±0.13
Blood pool MPI, difference FU – BL ([7]; udenafil 37.5 mg BID, N=6): −0.003±0.10
Blood pool MPI, difference FU – BL ([7]; udenafil 37.5 mg QD, N=5): −0.052±0.17
Blood pool MPI, difference FU – BL ([7]; udenafil 125 mg QD, N=5): −0.054±0.18
